The text below walks through data of publication PMC4664883, “Selective targeting of nuclear receptor FXR by avermectin analogues with therapeutic effects on nonalcoholic fatty liver disease” (Scientific Reports, 2015).

Data set [1] has as its system mice. On the set-up: method as in PMID 19072826. As to conditions: cited from earlier work.
Data set [2] has as its system FXR A291W mutation. The experiment in a line: Reporter assay with mutated FXR. As to conditions: 1 μM, Fig. 8e. The data set is classed as cell-based. A general note: A reporter such as luciferase makes a cellular process visible.
For data set [3], the system named is FXR N283L mutation. The data set is described as follows: Reporter assay with mutated FXR. The data set is classed as cell-based. The note with it: 1 μM, Fig. 8e. The source says:
R331M mutation was supposed to strengthen the hydrophobic interactions by displacing the corresponding residue of polar arginine to a hydrophobic methionine (Fig. 8b). Accordingly, this mutation increased the ability to be activated by avermectin ligands (Fig. 8e). For H447F mutation, the corresponding residue of histidine with a side chain of imidazole group was replaced by the nonpolar phenylalanine with a side chain of benzene ring (Fig. 8c). […] N283L mutation disrupts a key hydrogen bond between FXR and avermectin compounds (Fig. 8d).

For data set [4], the system named is KK-Ay mice. The experiment in a line: High-fat diet fed KK-Ay mice treated 14 days (liver histology, metabolic parameters, GTT, ITT). The data set is classed as in vivo. As to conditions: KK-Ay mice, high-fat diet, i.p. once daily 14 days; avermectin analogues 1.3 mg/kg, GW4064 30 mg/kg. Here is the method:
To further confirm the lipid accumulation, we performed oil red O staining of the frozen liver sections (Fig. 2c).
10 weeks age KK-Ay mice and C57BL/6J, homozygous FXR deficient (FXR^–/–) mice were maintained under environmentally controlled conditions with free access to standard chow diet and water as described previously. Animal experiments were conducted in the barrier facility of the Laboratory Animal Center, Xiamen University, approved by the Institutional Animal Use and Care Committee of Xiamen University, China, and the methods were carried out in accordance with the approved guidelines. Mice were fed with high fat diet containing 60% fat, 20% protein and 20% carbohydrate (Research Diets, D12492, New Brunswick, USA), and the food intake were measured every second day. […] After 6 h fasting, mice were weighed and sacrificed. Livers were weighed and taken photos, and part of each liver was fixed in 4% paraformaldehyde. Liver histology characterization was analyzed by haematoxylin and eosin (H&E) staining with paraffin-embedded sections by standard procedures. Other tissues were collected and frozen in liquid nitrogen for use, and serums were collected to measure metabolite parameters.
Fresh liver tissues were embedded in optimum cutting temperature compound (OCT) and cryosectioned. The sections were fixed in 4% paraformaldehyde in PBS, and were stained with 0.3% oil red O according to standard procedures.
Mice treated with compounds for 10 days were fasted for 6 h with free access to water. For the glucose tolerance test (GTT), 1 g/kg of glucose was i.p. injected and blood glucose was measured with the Accu-Check Performa (Roche Applied Science, Mannheim, Germany) at 0, 30, 60, 90, 120,150 and 180 min. For the insulin tolerance test (ITT), 1 U/kg of recombinant human insulin (Novolin 30R; Novo Nordisk, Bagsvaerd, Denmark) was i.p. injected, and blood glucose was measured at 0, 30, 60, 120 and 150 min after insulin injection.
Serum glucose was analyzed using glucose oxidase method (Applygen, Beijing, China). Serum cholesterol and triglyceride were analyzed using Cholesterol Assay Kit and Triglyceride Assay Kit (Bioassay Systems, USA), respectively. Liver triglyceride was analyzed using Tissue triglyceride assay kit (Applygen, Beijing, China).

On the set-up of data set [5]: method as in PMID 10956205, PMID 25388536, PMID 19586769. As to conditions: in rat; cited from earlier work.
Data set [6] concerns mice. On the set-up: method as in PMID 21632533. The note with it: cited from earlier work.
The test system of data set [7] is medaka eleutheroembryo. The note with it: cited from earlier work.

Structures are written as SMILES.

Regarding `C[C@H](CCC(=O)O)[C@H]1CC[C@H]2[C@@H]3[C@H](O)C[C@@H]4C[C@H](O)CC[C@]4(C)[C@H]3CC[C@]12C` [CDCA, chenodeoxycholic acid], in data set [1], the “liver effect of CDCA-rich diet” value is on record as “induce liver hypertrophy”.
With `CC(C)c1onc(-c2c(Cl)cccc2Cl)c1COc1ccc(/C=C/c2cccc(C(=O)O)c2)c(Cl)c1` [GW4064], the “transcriptional activity of A291W mutated FXR” value in data set [2] is listed as “abolished the transcriptional activity”. Besides, the “transcriptional activity of N283L mutated FXR” value in data set [3] was “retained the ability to be activated”. Further, in data set [4], the “hepatic lipid / steatosis by H&E staining of liver sections” value is “slightly reduced the hepatic lipid”, the “lipid accumulation by oil red O staining of liver sections” value was “slightly reduced the lipid accumulation” and the “liver morphology (colour)” value was “a little fresh red”. Also, the t1/2 in data set [5] was < 1 h. Also, the “body weight and fat effect” value in data set [6] was “weight gain and fat accumulation”. Further, the hepatobiliary toxicity result in data set [7] is “hepatobiliary injury”.
